Measured values published in PMC7048748, “Anxiolytic Drug FGIN-1-27 Ameliorates Autoimmunity by Metabolic Reprogramming of Pathogenic Th17 Cells” (Scientific Reports, 2020).

Legend:
ATF4 = assay: Western blot for ATF4; type: cell-based, mouse; settings: 24 hours, compared to DMSO controls
Experimental: (a) MA-plot showing shrunken log2 fold-changes of detected genes between the DMSO and FGIN-1-27 RNA-seq samples, ranked by average normalized count. Red dots indicate differentially expressed genes at adjusted p-value <0.05. (b) Transcript levels for the indicated genes after 24 hours of treatment with DMSO or FGIN-1-27 quantified by qPCR. The error bars represent SD. (c) Western blot analysis for phosphorylated eIF2α and ATF4 24 hours after treatment with DMSO or FGIN-1-27 (5 and 10 µM). Data are representative of 3 independent experiments. (d) Amino acids in Th17 cells measured 72 hours after treatment with FGIN-1-27. The error bars represent SD. (e) ROS was measured using cell permeant reagent 2′,7′ –dichlorofluorescin diacetate (DCFDA) at 24 hours following treatment with FGIN-1-27. Filled grey histogram-DMSO, dotted line-FGIN-1-27 (10 µM) and dashed line indicates FGIN-1-27 (5 µM). […] Data are normalized using DMSO treated cells as 100% and the error bars represent SD.
Cell lysates were prepared by lysis in RIPA buffer containing protease and phosphatase inhibitors and immunoblotting was performed by standard methods.
(a) W estern blot analysis for phosphorylated eIF2α and ATF4 24 hours after treatment
with DMSO or FGIN-1-27 (5 and 10 µM). […]
(a) Indicated sterols were measured in Th17 cells treated with DMSO or FGIN-1-27 for […]

Th17 cells = assay: Transcript levels by qPCR in Th17 cells; type: cell-based, mouse
Experimental: Figure 1 FGIN-1-27 Inhibits Th17 Differentiation. Naïve CD4 T cells from spleens and lymph nodes of C57BL/6 mice were differentiated under Th17 polarization conditions and were treated with DMSO (control) or FGIN-1-27. (a) Dose response plot showing effect of FGIN-1-27 on intracellular IL-17 and viability on day 4 post activation quantified by flow cytometry. Data is normalized against DMSO (100%). […] (b) Dot plots showing DMSO or FGIN-1-27 treated cells stained for surface CD4, CD44, intracellular IL-17 and intranuclear RORγt. (c) Transcript levels for the indicated genes after 24 hours of treatment with DMSO or FGIN-1-27 quantified by qPCR. Data was normalized to a housekeeping gene, β-actin. Data are representative of at least 3 independent experiments and the error bars indicate standard deviation.
Figure 5 FGIN-1-27 induces amino acid starvation response (AAR). (a) MA-plot showing shrunken log2 fold-changes of detected genes between the DMSO and FGIN-1-27 RNA-seq samples, ranked by average normalized count. Red dots indicate differentially expressed genes at adjusted p-value <0.05. (b) Transcript levels for the indicated genes after 24 hours of treatment with DMSO or FGIN-1-27 quantified by qPCR. The error bars represent SD. (c) Western blot analysis for phosphorylated eIF2α and ATF4 24 hours after treatment with DMSO or FGIN-1-27 (5 and 10 µM). Data are representative of 3 independent experiments. (d) Amino acids in Th17 cells measured 72 hours after treatment with FGIN-1-27. The error bars represent SD. (e) ROS was measured using cell permeant reagent 2′,7′ –dichlorofluorescin diacetate (DCFDA) at 24 hours following treatment with FGIN-1-27. Filled grey histogram-DMSO, dotted line-FGIN-1-27 (10 µM) and dashed line indicates FGIN-1-27 (5 µM). […]
Total RNA extractions were performed with the RNAeasy kit (Qiagen) followed by cDNA synthesis using High capacity cDNA Reverse Transcription kit (Applied Biosystems). Quantitative PCR was performed on a ViiA 7 (Applied Biosystems) using SYBR Fast qPCR master mix (Kapa Biosystems). […]

`CCCCCCN(CCCCCC)C(=O)Cc1c(-c2ccc(F)cc2)[nH]c2ccccc12` [FGIN-1-27, N, N-di-n-hexyl 2-(4-fluorophenyl) indole-3-acetamide] was tested, and the “increase in ATF4 translation” value (ATF4) was 2.8 fold, the “ATF4 target genes Asns and Gpt2” value (Th17 cells; 24 hours) was “induced” and the “expression of RORγt target genes (Il17a, Il17f, Il23r, Ltb4r1, Ccr6) and Stat3” value (Th17 cells; 24 hours of treatment, p < 0.0001) was “significantly downregulated”. For the same compound, the CD5L transcript (Th17 cells; 72 hours post treatment) was “substantial up-regulation”.
